These results are taken from publication PMC9499463, “Potent Chlorambucil-Platinum(IV) Prodrugs” (International Journal of Molecular Sciences, 2022).

In one data set the test system is HT29 colon. The experiment in a line: MTT growth inhibition assay, 72 h. Type of data set: cell-based, human. The conditions noted are these: MTT, 72 h.
The next data set deals with U87 glioblastoma. Description: MTT growth inhibition assay, 72 h. Type of data set: cell-based, human. (In general: Tetrazolium assays rely on reduction of a dye to a coloured formazan, in cell work by metabolically active cells.)
In the next data set the test system is MCF-7 breast. Description: MTT growth inhibition assay, 72 h. Type of data set: cell-based, human. The conditions noted are these: for GI50: MTT, 72 h.
In a further data set the test system is H460 lung. Description: MTT growth inhibition assay, 72 h. Type of data set: cell-based, human.
In a further data set the test system is SJ-G2 glioblastoma. The experiment in a line: MTT growth inhibition assay, 72 h. The data set is classed as cell-based, human.
The subject of another data set is MIA pancreas. Description: MTT growth inhibition assay, 72 h. The data set is classed as cell-based, human. The conditions noted are these: MTT, 72 h.
Data set [1] deals with non-tumor-derived MCF10A breast line. Description: MTT growth inhibition assay, 72 h. Type of data set: cell-based, human.
Data set [2] concerns ADDP ovarian (cisplatin-resistant A2780 clone). The experiment in a line: MTT growth inhibition assay, 72 h. Type of data set: cell-based, human. The conditions noted are these: MTT, 72 h.
The nature of data set [3]: Lipophilicity by HPLC (log kw). The data set is classed as physicochemical. The settings on record: chromatographic lipophilicity index, extrapolated to 100% d.i.H2O. From the text:
For lipophilicity measurements, HPLC was utilized instead of the traditional shake-flask method, as described. A few studies have also reported the important and effective use of HPLC to measure the lipophilicity of compounds [66, 67]. Each complex was eluted under several isocratic ratios. A standard curve was then generated to calculate the log value of the capacity factor (log k) according to eqn (1). Following eqn (2), the percentage of organic solvent (CH3CN) in the mobile phase from each isocratic run was plotted against […] (Figure S34). Since log kw is the chromatographic lipophilicity index or measure of lipophilicity of the complex, a higher value corresponds to greater lipophilicity. Since PCLB, 5CLB, and 56CLB are structurally related, there were no significant variations in lipophilicity noted based on the calculated log kw values (Table 4). It is evident that PCLB is the least lipophilic of the group, with a calculated log kw value of 1.80, which is likely due to the absence of methyl groups in its phenanthroline system. 5CLB and 56CLB were the most lipophilic of the group with calculated log kw values of 1.90 and 1.87, respectively, and this is due to the presence of methyl substituents in their phenanthroline systems. […] Additionally, the chromatographic lipophilicity index of CLB was also measured using the abovementioned method, with a calculated log kw of 1.88, which is within the range observed for PCLB, 5CLB, and 56CLB. However, CLB was approximately 1-fold more lipophilic than PCLB. […] The order of increasing lipophilicity is […].
For lipophilicity measurements, analytical HPLC was utilized. Elution profiles were acquired on an Agilent Technologies 1260 Infinity instrument equipped with a Phenomenex Onyx^TM Monolithic C18-reverse phase column (100 × 4.6 mm, 5 µm pore size). The mobile phase consisted of solvents, A (0.06% TFA in d.i.H2O) and B (0.06% TFA in CH3CN/d.i.H2O (90:10)). Potassium iodide was used as an external dead volume marker to determine the dead time of the column. Retention times (TR) were measured at varying isocratic ratios ranging from 42% to 48% of solvent B at 1 mL/min. An injection volume of 10 µL was utilized. Capacity factors were determined according to Equation (1):(1) k=(TR−T0)/T0, where k is the capacity factor, TR is the retention time of the analyte, and T0 represents the dead time. A minimum of four different mobile compositions were used for each complex to calculate k. A linear plot was generated of log k against the concentration of CH3CN in the mobile phase to determine the value of log kw expressed by Equation (2):(2) logk=Sφ+logkw, where S is the slope, φ is the concentration of the CH3CN in the mobile phase and log kw represents the capacity factor of the complex in 100% d.i.H2O. […]

Data set [4] in a line: Reduction experiments with ascorbic acid by 1H-NMR and 1D-195Pt-NMR. Type of data set: physicochemical. The conditions noted are these: 10 mM AsA, 10 mM PBS (~7.4 pH), D2O, 37 °C, 1H-NMR. Here is the method: Intracellularly, a platinum(IV) complex is reduced into its platinum(II) congener and axial ligands in the presence of biological reducing agents such as AsA or glutathione. This report followed the reduction in PCLB, 5CLB, and 56CLB using ^1H-NMR and 1D-^195Pt-NMR spectroscopy. The method used for the reduction experiments was adapted from the literature with minor modifications. A total of 10 mM PBS (~7.4 pH) was selected as media to mimic physiological conditions, while 10 mM AsA was used as the biological reducing agent. Prior to the reduction experiments, a control was considered where each metal complex was dissolved with PBS in D2O. 1D-^195Pt-NMR was employed within the regions of −2800 and 400 ppm (30 min per region) at 37 °C. Typically, our platinum(II) complexes resonate within the −2800 ppm region (Figures S1–S3), while their platinum(IV) derivatives resonate around the 400 ppm region (Figures S4–S6). A control was required to ensure that the PBS would not interfere in the reduction process of the complexes. From the preliminary 1D-^195Pt-NMR spectra obtained (Figure 11), the state of all complexes was unchanged, and no sign of reduction was observed.
The reduction property of PCLB was monitored for 1 h by ^1H-NMR spectroscopy at 37 °C (Figure 12). Utilizing the resonances of the phenanthroline protons (H2 and H9; H4 and H7; H5 and H6; H3 and H8) from both platinum(II) and (IV) species as a qualitative measure of […], and considering that the resonances of these phenanthroline protons from both platinum(II) and (IV) species were almost equivalent, it is estimated that 40–50% reduction occurs within 10 min. […] A notable observation from the ^1H-NMR experiments is the movement of resonances, particularly the upfield shift of the phenanthroline protons and the downfield shift of the aromatic protons of CLB (Figure 12).
The reduction behavior of PCLB, 5CLB, and 56CLB was monitored using ^1H-NMR and 1D-^195Pt-NMR spectroscopy. A sequence of ^1H-NMR experiments was carried out for 1 h at 37 °C, followed by 1D-^195Pt-NMR within the regions of −2800 and 400 ppm. An amount of 10 mM PBS (~7.4 pH) was transferred to a vial and reduced to dryness through rotary evaporation. AsA (~1 mg) was combined with the metal complex (~5 mg) and transferred to the vial containing the dried PBS. A total of 600 µL of D2O was then added to the vial to dissolve the complex, AsA and the PBS together. Each reaction was followed at 37 °C until the complete reduction in the prodrugs.

“And” between values parts separate entries of the source, which are not always exact repeats. Equal values may be shown once.

Regarding `Cc1c(C)c2cccnc2c2ncccc12.N[C@H]1CCCC[C@@H]1N.O=C([O-])CCCc1ccc(N(CCCl)CCCl)cc1.O=[N+]([O-])[O-].O=[N+]([O-])[O-].[OH-].[Pt+4]` [56CLB, [Pt^IV(5,6-dimethyl-1,10-phenanthroline)(S,S-DACH)(CLB)(OH)](NO3)2], the GI50 with HT29 colon is 6 nM and 6.1 nM; in the data set on U87 glioblastoma it was 93 ± 0.0067 nM; in the data set with MCF-7 breast, 63 ± 0.015 nM; with H460 lung, 13 ± 0.0056 nM; in the data set on SJ-G2 glioblastoma, 130 ± 0.03 nM; in the data set with MIA pancreas, 11 ± 0.003 nM. In addition, the GI50 in data set [1] came to 7 ± 0.004 nM; in data set [2], 10 ± 0.0028 nM. For the same molecule, in the data set with MCF-7 breast, the “fold more potent than oxaliplatin-CLB prodrug of Qin et al.” value was roughly 200 fold. In addition, the “fold by which the cisplatin prodrug incorporating two CLB ligands (Ma et al.) is less potent” value (“fold … (Ma et al.) is less potent” for short) in the data set on MCF-7 breast (MCF-7 cell line) was found to be 35 fold. Moreover, in the data set with MCF-7 breast (MCF-7 cell line), the “fold more potent than cisplatin-CLB prodrug of Qin et al.” value is “about 63 fold”. In [3], the log kw was 1.87 and 1.90. Further, the “time to reach 50% reduction” value in data set [4] is on record as “approximately 5 min”.
For `Cc1cc2cccnc2c2ncccc12.N[C@H]1CCCC[C@@H]1N.O=C([O-])CCCc1ccc(N(CCCl)CCCl)cc1.O=[N+]([O-])[O-].O=[N+]([O-])[O-].[OH-].[Pt+4]` [5CLB, [Pt^IV(5-methyl-1,10-phenanthroline)(S,S-DACH)(CLB)(OH)](NO3)2], the GI50 came to 19 ± 0.0054 nM with HT29 colon; 250 ± 0.015 nM in the data set on U87 glioblastoma; 180 ± 0.017 nM with MCF-7 breast; 39 ± 0.013 nM in the data set with H460 lung; 180 ± 0.02 nM with SJ-G2 glioblastoma; 34 ± 0.005 nM with MIA pancreas. In addition, the GI50 in data set [1] stood at 22 ± 0.0045 nM; in [2], 26 ± 0.0064 nM. Moreover, the “fold … (Ma et al.) is less potent” value in the data set with MCF-7 breast (MCF-7 cell line) is given as 12 fold. Besides, in [3], the log kw is 1.90 and 1.87. Also, the “time to reach 50% reduction” value in [4] was “approximately 5 min”.
With `O=C(CCCc1ccc(N(CCCl)CCCl)cc1)[O][Pt-2]12([OH])([NH2+][C@H]3CCCC[C@@H]3[NH2+]1)[n+]1cccc3ccc4ccc[n+]2c4c31.O=[N+]([O-])[O-].O=[N+]([O-])[O-]` [PCLB, [Pt^IV(1,10-phenanthroline)(S,S-DACH)(CLB)(OH)](NO3)2], the GI50 in the data set with HT29 colon was found to be 170 ± 0.046 nM; with U87 glioblastoma it was 1200 ± 0.28 nM; with MCF-7 breast, 680 ± 0.043 nM; in the data set with H460 lung, 460 ± 0.063 nM; with SJ-G2 glioblastoma, 320 ± 0.04 nM; in the data set with MIA pancreas it was 190 ± 0.032 nM. For the same molecule, the GI50 turned out to be 300 ± 0.045 nM in data set [1] and 290 ± 0.037 nM in data set [2]. Also, the “fold … (Ma et al.) is less potent” value in the data set on MCF-7 breast (MCF-7 cell line) turned out to be 3 fold. Further, the log kw in [3] is recorded as 1.80. Besides, the “state of the complex at 1 h” value in data set [4] was “almost reduced to its platinum(II) congener”. Further, the “time at which the complex started reducing” value in data set [4] was determined as 5 min.

A word on the GI50: it is the concentration giving 50% growth inhibition. Lower therefore signals more potent growth inhibition.
